Experimental findings from article PMC5537602, “TRPA1 channel mediates organophosphate-induced delayed neuropathy” (Cell Discovery, 2017) are described below.

Molecules are shown by their SMILES.

Test [1] concerns the target T1, TRPM8 (Homo sapiens, UniProt Q7Z2W7).
T1 construct: expressed in transfected cells; host or cells: HEK293
In words: Calcium fluorescence signal, HEK293 cells overexpressing TRPM8. It counts as cell-based. The note with it: 10 μM. Here is the method:
(§1) Figure S3. Specificity of malathion for TRPA1 channels. (A-F) Time course of the fluorescence signal induced by malathion (Mala, 10 μM) and the indicated positive agonists (10 μM) in HEK293 cells overexpressing TRPV1 (A), TRPV3 (B), TRPV4 (C), TRPM8 (D), TRPC4 (E) and TRPC5 (F) channels. The fluorescence signals are scaled as F/F0. EC indicates external solution. […]
(§2) cells for each tested TRP channel. All bars are presented as the mean ± SEM. […]

Test [2] concerns hTRPA1 carrying single mutations (C414A, C421A, C621A, C641A, C665A or K710R). Description: Whole-cell patch-clamp of mutant hTRPA1 channels. It counts as cell-based, human. To be noted: 30 μM malathion. Here is the method:
Human embryonic kidney 293 (HEK293) cells were cultured in DMEM containing 10% (vol/vol) heat-inactivated fetal bovine serum, 100 units ml^−1 penicillin–streptomycin and 2 mM L-glutamine at 37 °C in a humidity-controlled sterile incubator with 5% CO2. All cell culture reagents were purchased from Life Technologies. HEK293 cells were transfected transiently with the corresponding plasmids using lipofectamine 2000 (Life Technologies). Transfection efficiency was monitored by co-transfecting EGFP plasmid which codes for the enhanced green fluorescent protein. Electrophysiological recordings were performed between 24 and 36 h after transfection.
Whole-cell patch-clamp recordings in DRG neurons (small diameter, […]) and HEK293 cells were operated at room temperature (23–25 °C) using EPC-10 amplifier and Patch Master Software (HEKA). […] Currents were sampled at 10 kHz and low-pass filtered at 2.9 kHz. The internal solution was as follows (in mM): 140 CsCl, 10 HEPES, 5 EGTA, 0.1 CaCl2 and 1 MgCl2, with pH adjusted to 7.2 by CsOH and osmolarity 295–300 mOsm. […] TRPA1 currents development was monitored with repetitive injections of 300 ms duration voltage ramps from −100 to +100 mV every 2 s and the holding potential was set to 0 mV for 50 ms, existing in both sides of the voltage ramp. […]
For orientation: Patch clamp records ionic current or voltage across a cell membrane.

The target of test [3] is T2, TRPV1 (Homo sapiens, UniProt Q8NER1).
T2 construct: expressed in transfected cells; host or cells: HEK293
In words: Calcium fluorescence signal, HEK293 cells overexpressing TRPV1. It counts as cell-based. To be noted: 10 μM. As to the method: as §1, §2

In test [4] the target is T3, TRPC4 (Homo sapiens, UniProt Q9UBN4).
T3 construct: expressed in transfected cells; host or cells: HEK293
T3 sequence (Q9UBN4 1-977): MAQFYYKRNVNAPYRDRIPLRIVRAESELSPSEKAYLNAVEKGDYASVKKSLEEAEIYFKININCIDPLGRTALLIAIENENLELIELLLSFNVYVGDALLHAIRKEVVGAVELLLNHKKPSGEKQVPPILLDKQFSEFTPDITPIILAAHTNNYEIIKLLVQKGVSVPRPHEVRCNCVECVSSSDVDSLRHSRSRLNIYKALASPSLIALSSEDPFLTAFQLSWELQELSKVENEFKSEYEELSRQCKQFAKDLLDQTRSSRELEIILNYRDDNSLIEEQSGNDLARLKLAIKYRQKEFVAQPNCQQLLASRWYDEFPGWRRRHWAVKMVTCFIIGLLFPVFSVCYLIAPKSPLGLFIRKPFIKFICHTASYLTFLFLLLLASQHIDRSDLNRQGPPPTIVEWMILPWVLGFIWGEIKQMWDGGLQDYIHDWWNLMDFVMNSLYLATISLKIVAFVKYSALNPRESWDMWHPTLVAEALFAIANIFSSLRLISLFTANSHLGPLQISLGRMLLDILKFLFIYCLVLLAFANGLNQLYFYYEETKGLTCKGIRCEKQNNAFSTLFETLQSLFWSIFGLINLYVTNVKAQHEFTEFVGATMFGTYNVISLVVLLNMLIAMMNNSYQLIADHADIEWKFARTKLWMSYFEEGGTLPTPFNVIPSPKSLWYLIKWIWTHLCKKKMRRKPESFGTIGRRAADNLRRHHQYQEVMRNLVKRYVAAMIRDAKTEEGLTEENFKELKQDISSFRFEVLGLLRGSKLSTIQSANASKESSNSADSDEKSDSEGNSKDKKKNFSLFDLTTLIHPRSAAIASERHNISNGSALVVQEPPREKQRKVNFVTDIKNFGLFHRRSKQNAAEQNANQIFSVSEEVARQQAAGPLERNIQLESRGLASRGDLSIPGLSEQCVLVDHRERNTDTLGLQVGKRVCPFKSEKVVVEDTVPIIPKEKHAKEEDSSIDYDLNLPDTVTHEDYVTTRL
Description: Calcium fluorescence signal, HEK293 cells overexpressing TRPC4. It counts as cell-based. To be noted: 10 μM. As to the method: as §1, §2

T1 sequence (Q7Z2W7 whole entry, species assumed): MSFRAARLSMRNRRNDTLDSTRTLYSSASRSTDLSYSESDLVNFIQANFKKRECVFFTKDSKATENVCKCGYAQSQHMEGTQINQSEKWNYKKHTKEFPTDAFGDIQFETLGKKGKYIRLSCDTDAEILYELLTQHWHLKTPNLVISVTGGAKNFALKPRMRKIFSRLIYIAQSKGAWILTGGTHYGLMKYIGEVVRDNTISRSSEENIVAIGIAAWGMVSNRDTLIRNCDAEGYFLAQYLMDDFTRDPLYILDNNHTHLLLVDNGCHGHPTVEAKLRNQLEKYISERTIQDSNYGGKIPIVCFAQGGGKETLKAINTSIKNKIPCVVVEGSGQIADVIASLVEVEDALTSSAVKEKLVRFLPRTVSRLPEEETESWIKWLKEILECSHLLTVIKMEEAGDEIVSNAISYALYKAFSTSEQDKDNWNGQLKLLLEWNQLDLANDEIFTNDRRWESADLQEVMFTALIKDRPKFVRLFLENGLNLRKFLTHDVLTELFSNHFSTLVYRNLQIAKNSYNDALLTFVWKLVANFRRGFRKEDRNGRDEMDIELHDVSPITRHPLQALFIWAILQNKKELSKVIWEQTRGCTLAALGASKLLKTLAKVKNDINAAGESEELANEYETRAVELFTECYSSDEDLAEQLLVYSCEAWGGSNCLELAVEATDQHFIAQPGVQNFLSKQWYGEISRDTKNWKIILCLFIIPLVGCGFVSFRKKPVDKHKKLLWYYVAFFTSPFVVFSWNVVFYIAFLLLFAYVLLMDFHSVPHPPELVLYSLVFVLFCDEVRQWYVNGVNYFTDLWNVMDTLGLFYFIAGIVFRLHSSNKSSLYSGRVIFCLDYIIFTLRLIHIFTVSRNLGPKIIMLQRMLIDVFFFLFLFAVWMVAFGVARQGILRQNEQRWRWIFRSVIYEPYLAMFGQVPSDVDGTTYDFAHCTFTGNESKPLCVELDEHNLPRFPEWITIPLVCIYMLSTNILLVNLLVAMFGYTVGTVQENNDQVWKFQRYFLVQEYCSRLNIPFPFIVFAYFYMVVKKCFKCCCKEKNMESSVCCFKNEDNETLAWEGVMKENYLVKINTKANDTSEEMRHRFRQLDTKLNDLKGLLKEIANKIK
T2 sequence (Q8NER1 whole entry, species assumed): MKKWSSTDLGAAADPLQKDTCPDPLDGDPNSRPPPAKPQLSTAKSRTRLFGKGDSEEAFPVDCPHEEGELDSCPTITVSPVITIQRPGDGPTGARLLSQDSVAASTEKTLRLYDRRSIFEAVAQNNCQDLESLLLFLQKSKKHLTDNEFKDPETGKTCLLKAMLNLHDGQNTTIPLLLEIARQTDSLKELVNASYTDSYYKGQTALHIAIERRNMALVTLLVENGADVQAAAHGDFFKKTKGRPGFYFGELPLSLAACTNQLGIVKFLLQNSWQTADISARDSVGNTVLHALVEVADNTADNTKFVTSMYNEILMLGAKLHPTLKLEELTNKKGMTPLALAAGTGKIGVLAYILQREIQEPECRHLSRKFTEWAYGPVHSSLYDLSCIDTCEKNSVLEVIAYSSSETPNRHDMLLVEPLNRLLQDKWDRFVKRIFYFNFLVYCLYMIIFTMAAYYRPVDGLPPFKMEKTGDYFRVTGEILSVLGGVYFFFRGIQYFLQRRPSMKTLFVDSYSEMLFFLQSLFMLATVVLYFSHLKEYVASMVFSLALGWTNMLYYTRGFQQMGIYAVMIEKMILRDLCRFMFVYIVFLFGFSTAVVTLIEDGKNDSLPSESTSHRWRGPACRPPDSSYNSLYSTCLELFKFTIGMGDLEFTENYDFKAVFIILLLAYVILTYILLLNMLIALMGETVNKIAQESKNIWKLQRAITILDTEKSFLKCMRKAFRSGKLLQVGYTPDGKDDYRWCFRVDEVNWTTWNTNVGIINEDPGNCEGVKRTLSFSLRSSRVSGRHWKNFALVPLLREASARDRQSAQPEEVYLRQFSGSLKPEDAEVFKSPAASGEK

In the case of `CCOC(=O)CC(SP(=S)(OC)OC)C(=O)OCC` (stereo not drawn) [malathion, S-[1,2-bis (ethoxycarbonyl)ethyl] O, O-dimethyl phosphorodithioate], in test [1], the “activation of TRPM8” value is “could not activate”. Besides, the “response of mutant hTRPA1 compared to WT channels” value in test [2] is “significantly reduced”. In test [3], the “activation of TRPV1” value is reported as “could not activate”. Further, in test [4], the “activation of TRPC4” value is listed as “could not activate”.
